Data reported in patent publication US7528141B2, “Use of cyclopenta[g]quinazoline derivatives for treating cancer” (BTG International Limited, priority 2001, dated 2009).
Where “and” joins values, the source holds several entries; their conditions need not be identical. Equal entries are not always repeated. Where two headings read alike, the source gives them in different places.

Key:
[1] = target: T1, thymidylate synthase (TS) from L1210 mouse leukaemia cells (Mus musculus, UniProt P07607); experiment: Inhibition of isolated L1210 thymidylate synthase; format: biochemical; conditions: read-out: Inhibition of isolated L1210 TS, Kiapp
T1 construct: obtained in partially purified form from L1210 mouse leukaemia cells; endogenous in cells; host or cells: L1210 mouse leukaemia cells (enzyme partially purified)

KB cells = experiment: Inhibition of cell growth, KB cells; conditions: for fold increased IC50 in presence of folic acid, KB: IC50 + 1 μM FA vs without FA;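 as to all read-outs here: KB nasopharyngeal carcinoma cells express the α-folate receptor, and leucovorin at 20 nM was the folate source in the growth medium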
[2] = target: T2, reduced-folate carrier (RFC) (Homo sapiens, UniProt P41440); experiment: Inhibition of 3H MTX uptake in W1L2 cells; format: cell-based; conditions: Inhibition of 3H MTX uptake Ki, W1L2, human lymphoblastoid W1L2 cells; high Ki = low affinity for RFC
T2 construct: endogenous in cells; host or cells: W1L2
T2 sequence (P41440 1-591): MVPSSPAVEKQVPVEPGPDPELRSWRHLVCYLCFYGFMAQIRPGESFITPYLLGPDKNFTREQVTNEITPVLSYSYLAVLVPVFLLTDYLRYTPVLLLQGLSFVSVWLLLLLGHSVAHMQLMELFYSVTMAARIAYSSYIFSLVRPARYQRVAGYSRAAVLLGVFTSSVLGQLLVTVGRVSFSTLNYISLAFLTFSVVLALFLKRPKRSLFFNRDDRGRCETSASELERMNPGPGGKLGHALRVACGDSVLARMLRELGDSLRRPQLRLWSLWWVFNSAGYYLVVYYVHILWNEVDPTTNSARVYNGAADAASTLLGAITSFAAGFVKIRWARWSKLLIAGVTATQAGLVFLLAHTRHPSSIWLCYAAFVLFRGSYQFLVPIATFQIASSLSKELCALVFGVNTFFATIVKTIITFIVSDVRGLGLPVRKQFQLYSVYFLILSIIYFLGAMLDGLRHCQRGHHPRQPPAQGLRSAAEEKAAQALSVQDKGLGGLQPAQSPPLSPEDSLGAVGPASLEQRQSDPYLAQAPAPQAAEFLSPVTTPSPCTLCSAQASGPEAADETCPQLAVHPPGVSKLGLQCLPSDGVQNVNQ

A431-FBP cells = experiment: Inhibition of cell growth, A431-FBP cells; conditions: for fold increased sensitivity compared with A431, A431-FBP: A431 IC50 vs A431-FBP IC50; for fold increased IC50 in presence of folic acid, A431-FBP: IC50 + 1 μM FA vs without FA
α-FR [3] = target: T3, α-FR (Mus musculus, UniProt P35846); experiment: Binding to α-FR relative to folic acid, L1210-FBP cells; conditions: L1210-FBP mouse tumor cells overexpressing α-FR; folic acid = 1
T3 construct: endogenous in cells; host or cells: mouse L1210-FBP cells

A431 cells = experiment: Inhibition of cell growth, A431 cells; conditions: for fold increased IC50 in presence of folic acid, A431: IC50 + 1 μM FA vs without FA
[4] = target: T4, reduced-folate carrier (RFC) (Mus musculus, UniProt P41438); experiment: Inhibition of 3H MTX uptake in L1210 cells; format: cell-based; conditions: Inhibition of 3H MTX uptake Ki, L1210, mouse L1210 tumor cells; high Ki = low affinity for RFC
T4 construct: endogenous in cells; host or cells: L1210
T4 sequence (P41438 1-512): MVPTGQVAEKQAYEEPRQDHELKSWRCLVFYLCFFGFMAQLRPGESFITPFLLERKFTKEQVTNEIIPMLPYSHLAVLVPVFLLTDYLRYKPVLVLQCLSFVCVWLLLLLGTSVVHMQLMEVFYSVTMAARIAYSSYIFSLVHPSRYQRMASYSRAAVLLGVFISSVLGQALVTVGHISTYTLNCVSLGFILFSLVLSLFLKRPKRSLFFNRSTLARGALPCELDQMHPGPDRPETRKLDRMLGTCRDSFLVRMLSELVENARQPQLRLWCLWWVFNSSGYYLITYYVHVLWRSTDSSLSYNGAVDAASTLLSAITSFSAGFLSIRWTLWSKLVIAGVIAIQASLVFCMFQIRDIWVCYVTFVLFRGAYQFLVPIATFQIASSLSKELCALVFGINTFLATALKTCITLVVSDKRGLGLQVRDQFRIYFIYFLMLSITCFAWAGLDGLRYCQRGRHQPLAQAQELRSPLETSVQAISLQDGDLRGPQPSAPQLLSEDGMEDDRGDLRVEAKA

α-FR [5] = target: T5, α-FR (Homo sapiens, UniProt P15328); experiment: Binding to α-FR relative to folic acid, A431-FBP cells; conditions: human A431 cells transfected with α-FR; folic acid = 1
T5 construct: expressed in transfected cells; host or cells: A431 (human vulvar carcinoma)

[6] = Homo sapiens, KB, read-out: Inhibition of cell growth, IC50, KB, 20 nM LV
[7] = read-out: Inhibition of cell growth, IC50, KB + 1 μM FA, 20 nM LV, + 1 μM folic acid
[8] = Homo sapiens, read-out: Inhibition of cell growth, IC50, A431-FBP
[9] = read-out: Inhibition of cell growth, IC50, A431-FBP + 1 μM FA, 20 nM LV, + 1 μM folic acid
[10] = Homo sapiens, A-431, read-out: Inhibition of cell growth, IC50, A431
[11] = read-out: Inhibition of cell growth, IC50, A431 + 1 μM FA, 20 nM LV, + 1 μM folic acid

T3 sequence (P35846 25-232): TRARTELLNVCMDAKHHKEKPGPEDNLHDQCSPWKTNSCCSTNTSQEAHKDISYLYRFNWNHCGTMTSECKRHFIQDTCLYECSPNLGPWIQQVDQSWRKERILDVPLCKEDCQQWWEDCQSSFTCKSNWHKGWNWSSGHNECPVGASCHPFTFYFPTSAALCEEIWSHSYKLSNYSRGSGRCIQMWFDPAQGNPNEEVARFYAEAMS
T5 sequence (P15328 25-234): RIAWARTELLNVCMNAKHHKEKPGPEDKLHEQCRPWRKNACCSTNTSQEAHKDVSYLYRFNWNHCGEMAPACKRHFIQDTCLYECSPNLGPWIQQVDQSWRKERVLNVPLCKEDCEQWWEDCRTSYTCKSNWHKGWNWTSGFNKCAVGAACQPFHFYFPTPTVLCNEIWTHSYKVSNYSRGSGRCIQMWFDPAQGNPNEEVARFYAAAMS
T1 sequence (P07607 whole entry): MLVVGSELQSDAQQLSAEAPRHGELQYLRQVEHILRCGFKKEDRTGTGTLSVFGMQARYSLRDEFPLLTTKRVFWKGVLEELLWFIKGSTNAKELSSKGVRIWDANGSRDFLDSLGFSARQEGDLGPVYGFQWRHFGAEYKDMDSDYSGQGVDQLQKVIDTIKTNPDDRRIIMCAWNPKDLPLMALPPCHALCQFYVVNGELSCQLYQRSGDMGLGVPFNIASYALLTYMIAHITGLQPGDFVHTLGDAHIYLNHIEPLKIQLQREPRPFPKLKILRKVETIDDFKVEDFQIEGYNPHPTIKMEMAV

Compound	Ki [1]	fold increased IC50 in presence of folic acid, KB (KB cells; 20 nM LV)	IC50 (KB cells; [6])	IC50 (KB cells; [7])	Ki [2]	fold increased sensitivity compared with A431, A431-FBP (A431-FBP cells; 20 nM LV)	fold increased IC50 in presence of folic acid, A431-FBP (A431-FBP cells; 20 nM LV)	IC50 (A431-FBP cells; [8])	IC50 (A431-FBP cells; [9])	Inverse relative affinity for α-FR, L1210-FBP (α-FR [3])	fold increased IC50 in presence of folic acid, A431 (A431 cells; 20 nM LV)	IC50 (A431 cells; [10])	IC50 (A431 cells; [11])	Ki [4]	Inverse relative affinity for α-FR, A431-FBP (α-FR [5])
C#CCN(c1ccc(C(=O)N[C@@H](CCC(=O)N[C@H](CCC(=O)O)C(=O)O)C(=O)O)c(F)c1)C1CCc2cc3nc(C)[nH]c(=O)c3cc21 (mixture of isomers) [CB300947 (R, S), N-{N-{4-[N-((6RS)-2methyl-4-oxo-3,4,7,8-tetrahydro-6H-cyclopenta[g]-quinazolin-6-yl)-N-(prop-2-ynyl)amino]-2-fluorobenzoyl}-L-γ-glutamyl}-D-glutamic acid]	0.46 nM and 0.77 nM	(73) fold	8 ± 1 nM	580 ± 30 nM	97000 nM and 315000 nM	(150) fold	(100) fold	9.4 ± 4 nM	930 ± 210 nM	0.73 ± 0.01	(1) fold	1400 ± 260 nM	1200 ± 510 nM	> 250000 nM	0.58 ± 0.017
C#CCN(c1ccc(C(=O)N[C@@H](CCC(=O)N[C@H](CCC(=O)O)C(=O)O)C(=O)O)cc1)[C@H]1CCc2cc3nc(C)[nH]c(=O)c3cc21 [CB300638 (S)]	0.33 ± 0.16 nM	(110) fold	3.6 ± 1.5 nM	390 ± 180 nM	115000 ± 12000 nM	(270) fold	(160) fold	3 ± 2.1 nM	490 ± 170 nM	0.66 ± 0.08	(1) fold	810 ± 310 nM	970 ± 580 nM	> 250000 nM	0.53 ± 0.07
C#CCN(c1ccc(C(=O)N[C@@H](CCC(=O)N[C@H](CCC(=O)O)c2nnn[nH]2)C(=O)O)cc1)[C@H]1CCc2cc3nc(C)[nH]c(=O)c3cc21 [CB300907 (S)]	0.16 nM and 0.17 nM	(79) fold	6.2 ± 3 nM	490 ± 140 nM	142000 ± 54000 nM	(540) fold	(170) fold	2.6 ± 1.8 nM	430 ± 180 nM	0.61 ± 0.07	(1) fold	1400 ± 820 nM	1600 ± 1100 nM	186000 ± 121000 nM	0.58 ± 0.032
